Experimental data from article PMC5025780, “Copper(II) ions affect the gating dynamics of the 20S proteasome: a molecular and in cell study” (Scientific Reports, 2016).

Key:
[1] = system: proteasome ChT-L activity in HeLa cells; assay: Proteasome-Glo Chymotrypsin-Like Cell-Based Assay in intact HeLa cells; set-up: species or system human; conditions: for Copper-induced proteasome inhibition in cells pretreated with NAC: 100 μM NAC pretreatment 24 h
Protocol: HeLa cells (human cervix carcinoma), were cultured in Dulbecco’s MEM medium (Life Technologies) supplemented with 10% of fetal calf serum (FCS, Life Technologies), glutamax (Invitrogen), 100 U/mL penicillin, 100 µg/mL streptomycin. Cells were routinely grown as stocks in 75 cm^2 flasks in a humidified atmosphere (95% air, 5% CO2) at 37 °C.
The ChT-L proteolytic activity of the proteasome in intact HeLa cells were determined using the Proteasome-Glo™ Chymotrypsin-Like Cell-Based Assay (Promega) according to manufacturer's instructions. Briefly, 800 cells/well were grown in 384 sterile multiwells (optical plate and white walls) in 50 μl of DMEM + FBS10% + PenStrep 1%. After 4 h of cell seeding, Cu(II) was added in cell medium in a concentration range 10–80 μM for 24 h. Then the medium was removed and replaced with FCS free medium. To determine whether or not the residual proteolytic measured was dependent on to proteasome rather than other proteases, we performed a control experiment with epoxomicin, a specific proteasome inhibitor. Epoxomicin (5 μM) was added to the cells 60 min before the proteasome activity assay. The substrate for the β5 ChT-L activity (Suc-LLVY-aminoluciferin) was dissolved in Proteasome-Glo™ Cell-Based Reagent and added to intact cells. After 2 min of shaking for permeabilization and further 10 min of incubation at 25 °C, luminescence was measured with a Varioskan Flash (Thermo) micro plate reader. Proteasome activity in intact cells was also measured by using the internally quenched fluorogenic substrate H2N-K-K(Dabcyl)-K-K-L-L-V-Y-G-E(Edans)-G-R-K-K-R-R-Q-R-R-R- (TED) as described elsewhere. […] The peptide purity was determined by MALDI-TOF experiments carried out with a Bruker Reflex III time-of-flight (TOF) mass spectrometer operating in the reflection mode, and the matrix used was α-cyano 4-hydroxycinnamic. […] TED internalization and cleavage in live HeLa cells was assayed by fluorescence microscopy (see Figure S8 of Supplementary Information).

20S proteasome (CP) gate = system: T1, 20S proteasome (CP) gate; assay: Steady-state Trp fluorescence of SDS-activated 20S proteasome (gating); set-up: species or system human; conditions: 100 μM Cu(II) added to SDS-activated CP (0.018% SDS), pH 7.6, 37 °C
T1 construct: purchased Boston Biochem (Cambridge, MA, USA)
Protocol: In particular, fluorescence spectra of the isolated 20S proteasome may be deconvoluted into two components. The first of these bands is ascribable to Trp13(α6) residues which are located at the entrance of the channel. Therefore, a red-shift of the first component may be associated to a gate opening of the 20S proteasome. Here, we exploited this effect to investigate the role of Cu(II) ions in CP gate closing. […] Next, we recorded the fluorescence spectra obtained immediately (t = 0 min) and after 30 min the addition of 100 μM Cu(II) ions to the SDS-activated CP and deconvoluted the fluorescence spectra into the contributions from each type of tryptophan as described in the experimental section (see Fig. 3 panel A). […]
Fluorescence emission spectra of purified 20S proteasomes (1.5 μM) in a MOPS buffer 10 mM, 0.018% SDS, pH 7.6 were recorded at 37 °C over time prior to and following addition of Cu(II) (100 μM). […] The final fluorescence spectra represent averages of at least three measurements. […] Fluorescence spectra were recorded on a Horiba Fluoromax-4 spectrofluorimeter from 300 to 400 nm in 1-nm steps, at an excitation wavelength λexc = 295 nm. Deconvolution of fluorescence spectra into the log-normal components was performed according to the algorithms integrated into the web-based toolkit PFAST (http://pfast.phys.edu/)[43]. […]

For `[Cl][Cu][Cl]` [Cu(II), CuCl2], the “Copper-induced proteasome inhibition in cells pretreated with NAC” value ([1]; Cu(II) 80 μM) was “did not overcome proteasome inhibition”, the “ChT-L activity in HeLa cells (normalized to untreated controls)” value ([1]; Cu(II) 20 to 80 μM in medium, 24 h) was 60% and the “Copper-induced proteasome inhibition in cells pretreated with NAC” value ([1]; Cu(II) 20–40 μM) was “completely abolished”. For the same compound, the “Red shift of first Trp fluorescence component (gate opening)” value (20S proteasome (CP) gate) was “decreased rate of red-shift”.
